Data from patent publication US20220117941A1, “CARBAMATE COMPOUND AND USE OF FORMULATION COMPRISING SAME IN PREVENTING, ALLEVIATING, OR TREATING ACUTE STRESS DISORDER OR POST-TRAUMATIC STRESS DISORDER” (SK BIOPHARMACEUTICALS CO., LTD., priority 2018, published 2022).
Where a name gives a salt, the structure may show the parent alone.

How the values were obtained:
[1] = test system: mice (CD-1); experiment: Forced swimming test in mice with combination of Test Compound and selective serotonergic reuptake inhibitor; format: in vivo; settings: CD-1 mice, 30 min after injection, FIG. 5
Experimental: Adult mice (CD-1) were used. The experimental animals were maintained at a light-and-darkness cycle of 12 hours (illuminated from 7 pm to 7 am), a temperature of 22 to 25° C., a relative humidity of 40 to 60%, and free access to water and food. The animals were randomly divided into four groups as follows: • Eight (8) mice as a control group, administered with intraperitoneal injection of saline as a vehicle at a dose volume of 10 ml/kg (Group 1) • Eight (8) mice as an experimental group, administered with intraperitoneal injection of Test Compound at a dose of 5 mg/kg (10 ml/kg) (Group 2) • Eight (8) mice as an experimental group, administered with intraperitoneal injection of fluoxetine hydrochloride at a dose of 10 mg/kg (10 ml/kg) (Group 3) • Eight (8) mice as an experimental group, administered with intraperitoneal injection of Test Compound at a dose of 5 mg/kg (10 ml/kg) and fluoxetine hydrochloride at a dose of 10 mg/kg (10 ml/kg) (Group 4)
To perform a forced swimming test in the mice of Groups 1 to 4, water of 25° C. was filled to a height of 20 cm in a transparent cylinder. […] The results are represented in FIG. 5.
Statistical analysis was carried out by using one-way ANOVA in Prism 7.04.

[2] = test system: rats in which post-traumatic stress disorder was induced by single prolonged stress (SPS); experiment: Forced swimming test in rats with post-traumatic stress disorder induced by single prolonged stress (SPS); format: in vivo, rats (Sprague-Dawley); settings: SPS-induced PTSD rats; 30 mg/kg orally for 15 days; FIGS. 1 to 3
Experimental: Adult male rats (Sprague-Dawley, 200 to 230 g) were used. The experimental animals were maintained at a light-and-darkness cycle of 12 hours (illuminated from 7 pm to 7 am), a temperature of 22 to 25° C., a relative humidity of 40 to 60%, and free access to water and food. […]
(§1) Post-traumatic stress disorder was induced in Group 2 and Group 3 as described above. […] All experimental animals were measured daily for changes in mortality and body weight to determine whether post-traumatic stress disorder was well induced. […]
To carry out a forced swimming test in the rats of Groups 1 to 3, water of 25° C. was filled to a height of 30 cm in a transparent cylinder (20 cm in diameter×50 cm in height). […] After 24 hours, rats were inserted into the cylinder for 5 minutes and the escape behavior of rats was recorded and measured using a video camera. […] Climbing behavior measured the time to climb upward, immobility behavior measured the time to not escape, and swimming behavior measured the time to move horizontally in the cylinder. […]

[3] = test system: blood corticoid; experiment: Measurement of corticoid in blood of SPS-induced post-traumatic stress disorder rats (ELISA); format: in vivo, rats (Sprague-Dawley); settings: SPS-induced PTSD rats; 30 mg/kg orally for 15 days; vs vehicle-treated PTSD-induced rats; FIG. 4
Experimental: Adult male rats (Sprague-Dawley, 200 to 230 g) were used. The experimental animals were maintained at a light-and-darkness cycle of 12 hours (illuminated from 7 pm to 7 am), a temperature of 22 to 25° C., a relative humidity of 40 to 60%, and free access to water and food. The animals were randomly divided into three groups as follows: • Eight (8) rats as a control group, orally administered with saline as a vehicle at a dose volume of 3 ml/kg (Group 1) • Seven (7) rats in which post-traumatic stress disorder was induced, and saline as a vehicle was then orally administered at a dose volume of 3 ml/kg (Group 2) • Seven (7) rats in which post-traumatic stress disorder was induced, and Test Compound was then orally administered at a dose of 30 mg/kg (3 ml/kg) (Group 3) […]
as §1
Rats were sacrificed rapidly by decapitation on the day after the forced swimming test, and blood was quickly collected via the abdominal aorta. […] The corticoid concentration was measured by enzyme-linked immunoassay (ELISA) using a Novus Biologicals Corticosterone kit. The results were measured by means of an ELISA reader (MultiRead 400) to calculate the concentration of corticoid. […]

Row | Structure (SMILES) | immobility time in forced swimming test (Test Compound alone) ([1]; 5 mg/kg intraperitoneal) | efficacy on symptoms associated with post-traumatic stress disorder (climbing, immobility and swimming behaviors in forced swimming test) [2] | blood corticoid concentration [3] | immobility time in forced swimming test (fluoxetine alone) ([1]; fluoxetine hydrochloride 10 mg/kg intraperitoneal)
1 | NC(=O)O[C@@H](Cn1ncnn1)c1ccccc1Cl [Test Compound] | ineffective dose | showing efficacy on alleviating symptoms associated with post-traumatic stress disorder | statistically significant reduction | 
2 | CNCCC(Oc1ccc(C(F)(F)F)cc1)c1ccccc1 (stereo not shown) [fluoxetine, fluoxetine hydrochloride, reference compound] |  |  |  | ineffective dose
